This assay deals with T1, p53/MDM2 interaction [MDM2 (1-118) 6 his and GST-p53(1-50)] (Homo sapiens, UniProt Q00987).
T1 construct: The human MDM2 N-terminal fragment encompassing amino acids 1-118; made in house; host or cells: E. coli BL21/DE3 (MDM2-6His); E. coli DH5alpha (GST-p53)
In words: Measurement of the inhibition of p53/MDM2 interaction (modified ELISA). The assay is classed as binding. To be noted: 75 nM GST-p53 coated, 75 nM MDM2-6His, NTA-AP detection, optical density at 405 nm, compounds tested between 0 and 100 μM. On the procedure: The inhibition of the p53/MDM2 interaction by compounds was measured using a modified ELISA assay using a histidine tagged MDM2 [MDM2 (1-118) 6 his], a p53 GST fusion protein (GST-p53) and a nickel chelate-alkaline phosphatase (NTA-AP).
The human MDM2 N-terminal fragment encompassing amino acids 1-118 and immediately followed by a C-terminal 6-histidine tag sequence and then a stop codon was generated by PCR from a human placental cDNA library. The PCR product was initially cloned into pCR2.1 vector (Invitrogen) following the manufacturer's protocol. DNA sequencing confirmed a MDM fragment sequence identical to that of published MDM2 (EMBL accession no. Z12020). The MDM2-6His fragment was then subcloned into pTB375 E. coli expression vector to produce the expression vector pTB375-MDM2-6His (1-118) clone no. 11. The pTB375 vector is a modified T7 (Studier) Expression vector. Expression grows were performed in E. coli strain BL21/DE3 (obtained from Novagen Inc.) and expression of the recombinant protein was induced by addition of IPTG (isopropyl-β-D-1-thiogalactopyranoside). MDM2 (1-118) 6 his was purified from E. coli lysates using Ni-NTA beads (Qiagen). […]
100 μl of 75 nM GST-p53 was added per well to a 96 well plate (Nunc Maxisorp) and the plate left at 4° C. overnight. […] The optical density of each well was measured at 405 nm. […]
In general terms: An ELISA detects its analyte on a solid surface through an enzyme-linked reagent.

We go through one compound from patent publication US6770627B1, “Piperizine-4-phenyl derivatives as inhibitors of the interaction between mdm2 and p 53” (AstraZeneca AB, priority 1998, dated 2004).

Usually IC50 stands for the point on the concentration scale where inhibition reaches its midpoint. A higher IC50 goes with a need for much substance.

T1 sequence (Q00987 1-118): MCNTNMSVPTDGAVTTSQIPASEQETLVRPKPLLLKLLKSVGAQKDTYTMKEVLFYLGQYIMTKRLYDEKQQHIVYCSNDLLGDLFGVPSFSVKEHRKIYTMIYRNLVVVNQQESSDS

In the case of `Cc1occc1C(=O)N[C@@H](Cc1c[nH]c2ccccc12)C(=O)N1CCN(c2ccc([N+](=O)[O-])cc2)CC1` [Example 9, 2-Methyl-3-furoyl-Trp-piperazine-4-nitrophenyl], the IC50 was ~4 µM.
